Experimental findings from the OPERA property sets (Mansouri et al. 2018) are described below.

As a reminder, the boiling point is the temperature at which the vapour pressure of the liquid equals the pressure above it. Usually melting point stands for the temperature, or range, at which the solid turns liquid.

`CCN(CC)[N+](=O)[O-]` registered a boiling point of 206 °C. For `Cc1cccnn1`, the boiling point worked out at 214 °C and the melting point was found to be 184 °C. `CC=CCCl` showed a boiling point of 80.7 °C and a log10 vapour pressure (mmHg) of 1.84.

Turning to `CCOC(=O)NCc1ccccc1`, the boiling point amounted to 230 °C and the melting point was determined as 49 °C. `CCOC(=O)C(SP(=S)(OC)OC)c1ccccc1` (stereo unspecified): the log10 Koc (L/kg) was found to be 3, the log10 vapour pressure (mmHg) is -5.58, the melting point was 17.5 °C and the ready biodegradability result was “not readily biodegradable”. Regarding `O=C(CCCN1CCN(c2ccccn2)CC1)c1ccc(F)cc1`, the melting point worked out at 74 °C. In turn, `CC(C)(C)c1ccc(CCOc2ncnc3ccccc23)cc1` had a log10 vapour pressure (mmHg) of -7.59 and a melting point of 78.5 °C. In the case of `Nc1ccc([N+](=O)[O-])cc1`, the boiling point was 332 °C, the log10 Henry constant (atm·m³/mol) is -8.9, the log10 Koc (L/kg) was found to be 1.88 and the log10 vapour pressure (mmHg) is -5.49. For the same compound, the melting point was 146 °C and the ready biodegradability entry is given as “not readily biodegradable”. `O=C(Cl)c1ccc(Cl)cc1` gave a boiling point of 222 °C and a melting point of 16 °C. As to `CCCCCCCCCCCCSP(SCCCCCCCCCCCC)SCCCCCCCCCCCC`, the ready biodegradability entry is “not readily biodegradable”.

`CCCCCCCCCCOc1c(OC)cc(C(N)=O)cc1OC` yielded a melting point of 122 °C. With `O=[N+]([O-])c1cccc(Cl)c1Cl`, the boiling point turned out to be 258 °C, the melting point is 61.5 °C and the ready biodegradability result is listed as “not readily biodegradable”. For `CN1C(=O)CN=C(c2ccccc2F)c2cc([N+](=O)[O-])ccc21`, the melting point turned out to be 166 °C. Turning to `O=CNC(Nc1ccc(Cl)c(Cl)c1)C(Cl)(Cl)Cl` (stereo unspecified), the melting point was found to be 135 °C. As to `OCC(F)(F)C(F)(F)C(F)(F)C(F)F`, the boiling point was 140 °C. For `O=P(O)(O)CP(=O)(O)O`, the melting point is 200 °C.

Compound `CCOP(=S)(OCC)SCCS(=O)(=O)CC` yielded a log10 Koc (L/kg) of 3.22. Take `Cc1cocn1`: the boiling point turned out to be 88 °C. The compound `CCC(C)(c1ccc(O)cc1)c1ccc(O)cc1` had a melting point of 120 °C.

`CC1CCCSC1` (stereo unspecified): the boiling point worked out at 158 °C and the melting point is -60 °C.

For `CC(=O)Oc1ccc(Cl)cc1Cl`, the boiling point was found to be 244 °C. `Sc1ccccc1S`: the boiling point was determined as 238 °C and the melting point turned out to be 28.5 °C. For `OC[C@@H](O)[C@@H](O)CO`, in that order: 330 °C and 122 °C. `Cn1c(=O)on(-c2ccc(Cl)c(Cl)c2)c1=O` registered a log10 Koc (L/kg) of 3.48, a log10 vapour pressure (mmHg) of -6 and a melting point of 123 °C.

In turn, `COc1cc(Oc2ccc(Cl)cc2Cl)ccc1[N+](=O)[O-]` had a log10 vapour pressure (mmHg) of -4.85 and a melting point of 114 °C. Regarding `CCCCCCCCC(CCCCCCCC)C(=O)O`, the melting point stood at 38.5 °C.

Take `CC(F)(Cl)CCl` (stereo unspecified): the boiling point was determined as 88.6 °C and the melting point was -91.7 °C. Consider `CCCC(=NOCC)C1=C(O)CC(C2CCCSC2)CC1=O` (stereo unspecified), for which the log10 vapour pressure (mmHg) is -7.12 and the melting point was determined as 41 °C. In turn, `CC(Cl)C(=O)CCl` (stereo unspecified) gave a boiling point of 166 °C. In the case of `CC(COc1ccccc1)N(CCCl)Cc1ccccc1` (stereo unspecified), the melting point worked out at 39 °C.

For `Clc1ccc(C(Cl)Cl)cc1Cl`, the boiling point turned out to be 257 °C.

Turning to `Nc1cnn(-c2ccccc2)c(=O)c1Br`, the melting point came to 224 °C. Compound `CCCC(CC)C(C)(C)C` (stereo unspecified) yielded a boiling point of 156 °C. `NC(=O)c1cccc2ccccc12` displayed a melting point of 206 °C. Take `CCc1ccccn1`: the boiling point turned out to be 149 °C, the log10 Henry constant (atm·m³/mol) is -4.78, the log10 vapour pressure (mmHg) stood at 0.689 and the melting point is -63.1 °C. The compound `CC(C)CC(C)C(C)C` (stereo unspecified) registered a boiling point of 131 °C, a log10 biodegradation half-life (days) of 0.903, a log10 vapour pressure (mmHg) of 1.07 and a melting point of -128 °C. `CC(=O)C#N` registered a boiling point of 92.3 °C. The compound `Cc1cnc(C)cn1` showed a boiling point of 155 °C and a melting point of 15 °C.

`COC(C)CO` (stereo unspecified) came in with a boiling point of 130 °C. `CCN1CCCC1CNC(=O)c1cc(S(=O)(=O)CC)c(N)cc1OC` (stereo unspecified) came in with a melting point of 126 °C. The same measure, in the same setting: the result for `O=C(O)CCC(=O)c1ccc(C2CCCCC2)c(Cl)c1` reads 163 °C. Turning to `CCCCN1CCCC1`, the boiling point turned out to be 154 °C and the ready biodegradability entry was “readily biodegradable”.

Compound `CCCCCCCCCCC(=O)CC` displayed a melting point of 31 °C. The compound `O=C(O)CCOc1ccccc1` displayed a boiling point of 240 °C and a melting point of 97.5 °C. With `CCCCCC1=CCCC1`, the boiling point was 179 °C and the melting point is -83 °C. For `CC(=O)Oc1cc(C(C)C)ccc1C`, the boiling point came out at 246 °C. Regarding `O=C1CC(=O)NC(=O)N1`, the log10 vapour pressure (mmHg) was -7.82, the melting point amounted to 248 °C and the ready biodegradability entry is “readily biodegradable”. `CCN(CC)c1ccc([N+](=O)[O-])cc1` displayed a melting point of 77.5 °C.

`CC1(C)[C@H](C(=O)O[C@H](C#N)c2cccc(Oc3ccccc3)c2)[C@@H]1/C=C\C(=O)OC(C(F)(F)F)C(F)(F)F` returned a log10 vapour pressure (mmHg) of -9.48 and a melting point of 81.5 °C.

As to `CCCC(=O)N(C)C`, the boiling point came out at 186 °C and the melting point was -40 °C. In turn, `BrC=C(Br)Br` yielded a boiling point of 164 °C.

Take `Cc1cccc(Oc2ccccc2)c1`: the boiling point came to 272 °C and the ready biodegradability entry is “not readily biodegradable”. For `ClCCOCCOCCCl`, the boiling point turned out to be 232 °C, the log10 vapour pressure (mmHg) is -1.22, the melting point is -31.5 °C and the ready biodegradability entry is given as “not readily biodegradable”. Consider `CCCC(C)C`, for which the boiling point was 60.2 °C, the log10 vapour pressure (mmHg) was found to be 2.32 and the ready biodegradability result is given as “readily biodegradable”.

On to `CC1=CCC2C(C1)C2(C)C` (stereo unspecified), for which the boiling point worked out at 170 °C. `CCCCCCCCCCCCCC(=O)OC` returned a boiling point of 295 °C, a log10 vapour pressure (mmHg) of -3.31 and a melting point of 19 °C.
